The values that follow come from US5648368A, “Fibrinogen receptor antagonists” (Merck & Co., Inc., priority 1995, dated 1997).

Broadly, the IC50 is the point on the concentration scale where inhibition reaches its midpoint.

Where two headings read alike, the source gives them in different places.

The test system of assay [1] is gel-filtered human platelets. Kind of assay: ADP-stimulated/ADP-mediated platelet aggregation inhibition (Chronolog aggregometer). In kind it is cell-based. The procedure:
Platelet aggregation is measured at 37° C. in a Chronolog aggregometer. The reaction mixture contains gel-filtered human platelets (2×10^8 per ml), fibrinogen (100 micrograms per ml (ug/ml)), Ca^2 + (1 mM), and the compound to be tested. The aggregation is initiated by adding 10 μM ADP 1 minute after the other components are added. The reaction is then allowed to proceed for at least 2 minutes. The extent of inhibition of aggregation is expressed as the percentage of the rate of aggregation observed in the absence of inhibitor. The IC50 is the dose of a particular compound inhibiting aggregation by 50% relative to a control lacking the compound.
In addition to the following preparative procedures, several examples of in-vitro bioactivity of compounds within the scope of the present invention are indicated. To illustrate, one test which is used to evaluate fibrinogen receptor antagonist activity is based on evaluation of inhibition of ADP-stimulated platelets. Aggregation requires that fibrinogen bind to and occupy the platelet fibrinogen receptor site. Inhibitors of fibrinogen binding inhibit aggregation. In the ADP-stimulated platelet aggregation assay used to determine inhibition associated with the compounds claimed in the instant invention, human platelets are isolated from fresh blood, collected into acid citrate/dextrose by differential centrifugation followed by gel filtration on Sepharose 2B in divalent ion-free Tyrode's buffer (pH 7.4) containing 2% bovine serum albumin. [drawing 11]

For assay [2], the system named is cell attachment-promoting effects of fibronectin and vitronectin. The following applies: background statement; cited from earlier work.
A further assay relates to gpIIb/IIIa complex. The note with it: snake venom polypeptides; literature; cited from earlier work.
The mark [3] stands for this setting: Homo sapiens, Platelet, table 2, "Using the methods previously described", read-out: IC50 (μM) Inhibition of Platelet Aggregation.
Where [4] appears, read: Platelet, gel-filtered human platelets 2×10^8 per ml, fibrinogen 100 ug/ml, Ca2+ 1 mM, 10 μM ADP, 37° C., table 1, read-out: IC50 for inhibition of ADP-mediated platelet aggregation.
The mark [5] stands for this setting: gel-filtered human platelets 2×10^8 per ml, fibrinogen 100 ug/ml, Ca2+ 1 mM, 10 μM ADP, 37° C., table 1, read-out: IC50 for inhibition of ADP-mediated platelet aggregation.

With `CCCCS(=O)(=O)N[C@@H](CNC(=O)c1ccc(C(=O)NCCC2CCNCC2)cc1)C(=O)O`, in assay [1] (setting [3]), the IC50 is 0.02 µM.

`O=C(O)CCNC(=O)CCc1ccc(C2=CCNCC2)cc1` [4-(1,2,5,6-Tetrahydropyridin-4-yl)phenyl-3-propionyl-β-alanine]: the IC50 in assay [1] (setting [4]) was 1.7 µM.

As to `CCCCS(=O)(=O)N[C@@H](Cc1ccc(NC(=O)CCCC2CCNCC2)cc1)C(=O)O` [4-(4-Piperidin-4-yl)-N-3[2(S)-n-butylsulfonylaminopropionic acid]-phenylbutyramide], in assay [1] (setting [5]), the IC50 amounted to 0.095 µM.

Consider “arginine-glycine-aspartic acid [Arg-Gly-Asp]”, for which, in assay [2], the “activity of the tripeptide Arg-Gly-Asp” value is recorded as “low activity”.

As to `O=C(NC[C@H](NS(=O)(=O)c1ccccc1)C(=O)O)c1ccc(OCCC2CCNCC2)cc1` [4-[2-(Piperidin-4-yl)ethoxy]benzoyl-2(S)-phenylsulfonylamino-β-alanine], the 50% inhibitory concentration (IC50) in assay [1] (setting [4]) turned out to be 0.014 µM.

`O=C(NCCCC1CCNCC1)c1ccc(C(=O)NC[C@H](NS(=O)(=O)c2cccnc2)C(=O)O)cc1`: the IC50 in assay [1] (setting [3]) is 0.052 µM.

On to `O=C(O)CCNC(=O)c1cc(C(=O)NCCC2CCNCC2)ccn1`, for which, in assay [1] (setting [3]), the IC50 amounted to 1.1 µM.

As to `O=C(NC[C@H](NS(=O)(=O)c1ccccc1)C(=O)O)c1ccc(OCCCC2CNC2)cc1`, the IC50 in assay [1] (setting [3]) was found to be 0.01 µM.

Regarding `O=C(O)CCNC(=O)CCc1ccc(C2CCNCC2)cc1` [4-(Piperidin-4-yl)phenyl-3-propionyl-β-alanine], the IC50 in assay [1] (setting [4]) was 11 µM.

As to `CCCCS(=O)(=O)N[C@@H](CNC(=O)c1ccc(C(=O)NCC2CCNCC2)cc1)C(=O)O`, the IC50 in assay [1] (setting [3]) was found to be 0.14 µM.

Consider `O=C(NC[C@H](NS(=O)(=O)c1cccnc1)C(=O)O)c1ccc(OCCC2CCNCC2)cc1`, for which, in assay [1] (setting [3]), the IC50 was 0.009 µM.

Consider `CCCCS(=O)(=O)N[C@@H](CNC(=O)c1cccc(C(=O)N(C)CCC2CCNCC2)c1)C(=O)O`, for which, in assay [1] (setting [3]), the IC50 was 0.023 µM.

As for `O=C(NC[C@H](NS(=O)(=O)c1ccccc1)C(=O)O)c1cccc(OCCCC2CCNCC2)c1`, the IC50 in assay [1] (setting [3]) is 0.056 µM.

`Cc1ccc(C(=O)NCCC2CCNCC2)cc1C(=O)NCCC(=O)O`: the IC50 in assay [1] (setting [3]) amounted to 0.45 µM.

For `CC(CC(=O)NCCC(=O)O)c1ccc(C2=CCNCC2)cc1` (stereo not drawn) [3-[4-(1,2,5,6-Tetrahydropyridin-4-yl)phenyl]butyryl-β-alanine], the IC50 in assay [1] (setting [4]) was 1.3 µM.

For the compound `CCCCS(=O)(=O)N[C@@H](CNC(=O)CCc1ccc(C2CCNCC2)cc1)C(=O)O` [4-(Piperidin-4-yl)phenyl-3-propionyl-[2(S)-n-butyl-sulfonylamino]-β-alanine], in assay [1] (setting [4]), the IC50 is 0.1 µM.

`O=C(O)CC(CCc1c[nH]c2ccccc12)NC(=O)Cc1cccc(OCC2CCNCC2)c1` (centres unmarked) [3-[(4-Piperidinyl)methyloxy]-N-[3-(2-indol-3-yl)ethyl Propionic Acid]-phenyl Acetamide]: the IC50 in assay [1] (setting [5]) worked out at 5.2 µM.

Consider `O=C(NCCC1CCNCC1)c1ccc(C(=O)NC[C@H](NS(=O)(=O)c2cccnc2)C(=O)O)cc1`, for which the IC50 in assay [1] (setting [3]) was determined as 0.017 µM.

As to `O=C(NC[C@H](NS(=O)(=O)c1ccccc1)C(=O)O)c1ccc(OCCN2CCNCC2)cc1`, the IC50 in assay [1] (setting [3]) stood at 0.023 µM.

For `CCCCS(=O)(=O)N[C@@H](CNC(=O)c1cncc(C(=O)NCCC2CCNCC2)c1)C(=O)O`, in assay [1] (setting [3]), the IC50 is 0.11 µM.

On to `O=C(NC[C@H](NS(=O)(=O)c1ccccc1)C(=O)O)c1ccc(S(=O)(=O)CCC2CCNCC2)cc1`, for which, in assay [1] (setting [3]), the IC50 was 0.019 µM.

Consider `CCCCS(=O)(=O)N[C@@H](CNC(=O)CCc1ccc(C2=CCNCC2)cc1)C(=O)O` [4-(1,2,5,6-Tetrahydropyridin-4-yl)phenyl-3-propionyl-[2(S)-n-butylsulfonylamino]-β-alanine], for which the IC50 in assay [1] (setting [4]) turned out to be 0.022 µM.

As for `O=C(NC[C@H](NS(=O)(=O)c1ccccc1)C(=O)O)c1ccc(OCCC2CNC2)cc1`, the IC50 in assay [1] (setting [3]) is 0.017 µM.

In the case of `O=C(NC[C@H](NS(=O)(=O)c1ccccc1)C(=O)O)c1ccc(NCCC2CCNCC2)cc1`, the IC50 in assay [1] (setting [3]) amounted to 0.009 µM.

Turning to `CCCCS(=O)(=O)N[C@@H](CNC(=O)c1cc(C(=O)NCCC2CCNCC2)ccc1C)C(=O)O`, the IC50 in assay [1] (setting [3]) was 0.15 µM.

For Echistatin, the “affinity for the gpIIb/IIIa complex” value in the assay with gpIIb/IIIa complex is “high affinity”.

On to `O=C(O)CCNC(=O)CCc1cccc(CC2CCNCC2)c1` [3-[3-(Piperidin-4-ylmethyl)phenyl]propionyl-β-alanine], for which the IC50 in assay [1] (setting [4]) is 170 µM.

On to `O=C(O)CCNC(=O)Cc1cccc(OCC2CCNCC2)c1` [3-[(4-Piperidinyl)methyloxy]-N-(2-carboxyethyl)phenyl Acetamide], for which the IC50 in assay [1] (setting [4]) was determined as 56 µM.

On to `O=C(O)CCNC(=O)c1ccnc(C(=O)NCCC2CCNCC2)c1`, for which, in assay [1] (setting [3]), the IC50 was 1.6 µM.
